{"source": "patent US20230000820A1", "about": "“SOLID DOSAGE FORM OF N-1-PYRROLIDINE-N-5-(3-TRIFLUOROMETHOXY)PHENYL BIGUANIDE AND USES THEREOF” (ImmunoMet Therapeutics, Inc., priority 2021, published 2023)", "key": {"[1]": {"set-up": "species or system Beagle dogs", "details": "dog, in vivo, po", "description": "(§1) Animals were dosed with N-1-pyrrolidine-N-5-(3-trifluoromethoxy)phenyl biguanide acetate salt as specified in Table 1. Dosages were freshly prepared on the day of dosing. The PO (per os) solution was DI water. The enteric capsule was HMPC enteric-coated capsules. The test substance was prepared and used immediately before administration. The preparation method was to weigh N-1-pyrrolidine-N-5-(3-trifluoromethoxy)phenyl biguanide and add sterile distilled water. The mixture was titrated to final volumes by mixing via sonication for 2 minutes and vortexing for 5 minutes. During the administration time, the preparation was handled at room temperature. All animals for IV administration had free access to food and water. Animals for PO were fasted overnight prior to dosing and were fed approximately 2 hours after dosing. Group 2 shared the same 2 animals. Animals in PO_A arm were dosed first. After 2 days washout period, animals in PO_B arm were dosed. After 2 days washout period, animals in PO_C arm were dosed. Clinical observations of animals treated with compound 1 were recorded as specified in Tables 3-5.\nPlasma for both IV and PO dosing was sampled from animals pre-dose, and 5 minutes, 15 minutes, 30 minutes, 1 hour, 2 hours, 4 hours, 8 hours, and 24 hours post dose.\nSamples were collected via venipuncture of peripheral veins except the dosing vein. 0.3 mL of blood was drawn per time point. The anticoagulant used was potassium EDTA. Whole blood samples were gently inverted several times to ensure anticoagulation then placed on wet ice prior to centrifugation. Within 30 minutes of collection, the samples were centrifuged at approximately 2000×g (force) for 10 minutes at 2 to 8° C. to obtain plasma. The resultant plasma samples were immediately separated divided into 2 aliquots (˜[…] each) and transferred to cryogenic vial. Samples were maintained on wet ice throughout processing and stored in a freezer at −75±15° C. prior to analysis.\nThe standard curve was run in duplicate with a minimum of six standards, and a minimum of five standards and the LLOQ should fall within ±20% of the nominal value. Verapamil and dexamethasone were normally used as internal standards. […] A minimum of duplicate QC's at three concentrations (low, mid, and high QC) were incorporated into each run with the low QC no more than 3×LLOQ, the mid QC around the middle of the curve, and the high QC should be near the ULOQ (minimally 80% but less than 100% of the value of the highest standard) for the run and the mean value should be within ±20% of the theoretical value. The results of the QC's provide the basis for accepting or rejecting the run. At least 67% or four of six QC's should be within 20% of their respective nominal values; 33% of the QC's (not replicates of the same concentration) can fall outside 20% of nominal value. The simplest model that adequately describes the concentration-response relationship should be used. Linear or quadratic regression can be used. Weighting was 1/x or 1/x2.\nConcentrations of Test Article in the plasma samples were analyzed using a LC-MS/MS method. WinNonlin (Phoenix™, version 6.1) or other similar software will be used for pharmacokinetic calculations. The following pharmacokinetic parameters were be calculated, whenever possible from the plasma concentration versus time data: PO administration: T1/2, Cmax, Tmax, MRTinf, AUCinf, AUClast, F%, Number of Points for Regression (FIG. 1). […]"}, "human subjects [2]": {"tested_on": "human subjects", "details": "in vivo", "description": "A phase 1 clinical study investigating the safety and tolerability of compound 1 in human subjects was conducted. Healthy volunteers were administered either an uncoated tablet at 100 mg QD (cohort 1, N=6), 200 mg QD (cohort 2, N=6), or 400 mg QD (cohort 3, N=6), or a coated tablet at 400 mg (cohort 4, N=6) or 800 mg QD (cohort 5, N=6), and the compound 1 plasma concentration achieved by the subjects was recorded over time (FIGS. 2 and 4). Cancer patients were administered either an uncoated tablet at 100 mg QOD (cohort 1, N=3), 200 mg QOD (cohort 2, N=3), 400 mg QOD (cohort 3, N=3), 800 mg QOD (cohort 4, N=3), or 1200 mg QOD (cohort 5, N=3), or were administered an uncoated tablet at 800 mg QD (cohort 6, N=3) or 1200 mg QD (cohort 7, N=4), and the compound 1 plasma concentration achieved by the subjects was recorded over time (FIGS. 3 and 4)."}, "Beagle dogs": {"tested_on": "Beagle dogs", "test": "Clinical Observation/Cageside Observation of dogs treated with compound 1 (Example 1)", "format": "in vivo", "description": "as §1"}, "human subjects [3]": {"tested_on": "human subjects", "details": "in vivo", "description": "A phase 1 clinical study investigating the safety and tolerability of compound 1 in human subjects was conducted. Healthy volunteers were administered either an uncoated tablet at 100 mg QD (cohort 1, N=6), 200 mg QD (cohort 2, N=6), or 400 mg QD (cohort 3, N=6), or a coated tablet at 400 mg (cohort 4, N=6) or 800 mg QD (cohort 5, N=6), and the compound 1 plasma concentration achieved by the subjects was recorded over time (FIGS. 2 and 4). Cancer patients were administered either an uncoated tablet at 100 mg QOD (cohort 1, N=3), 200 mg QOD (cohort 2, N=3), 400 mg QOD (cohort 3, N=3), 800 mg QOD (cohort 4, N=3), or 1200 mg QOD (cohort 5, N=3), or were administered an uncoated tablet at 800 mg QD (cohort 6, N=3) or 1200 mg QD (cohort 7, N=4), and the compound 1 plasma concentration achieved by the subjects was recorded over time (FIGS. 3 and 4). A phase 1 clinical study investigating the safety and tolerability of compound 1 in human subjects was conducted. 22 subjects with solid tumors were enrolled and split into seven cohorts. Cohort 1 received 100 mg QOD, cohort 2 received 200 mg QOD, cohort 3 received 400 mg QOD, cohort 4 received 800 mg QOD, cohort 5 received […], cohort 6 received 800 mg QD, and cohort 7 received 1,200 mg QD.", "remark": "listed apart in the source"}}, "note": "Where two headings read alike, the source gives them in different places.", "data": [{"compound": "N=C(NC(=N)N1CCCC1)Nc1cccc(OC(F)(F)F)c1", "note": "[compound 1, N-1-pyrrolidine-N-5-(3-trifluoromethoxy)phenyl biguanide]", "values": [{"measurement": "Notes: AUC", "setting": "[1]", "value": "Improved AUC"}, {"measurement": "Notes: Bioavailability", "setting": "[1]", "value": "Improved"}, {"measurement": "Notes: PK", "setting": "[1]", "value": "no difference in PK"}, {"measurement": "AUCInf", "setting": "[1]; 100 mg/kg", "value": 10750, "unit": "ng·h/mL"}, {"measurement": "T1/2", "setting": "[1]; 100 mg/kg", "value": 6.65, "unit": "h"}, {"measurement": "Gastrointestinal adverse events", "setting": "human subjects [2]", "value": "Low-grade gastrointestinal adverse events were prominent"}, {"measurement": "Notes: tolerability", "setting": "Beagle dogs; PO A, HPMC Enteric Coating Capsule, vs Initial Formulation and Dosing (PO B)", "value": "Improved"}, {"measurement": "Notes: tolerability", "setting": "Beagle dogs; PO C, Zofran given prior to compound 1 dosing", "value": "no difference"}, {"measurement": "Loose feces observed, timepoint", "setting": "Beagle dogs; dog, in vivo", "value": "d. Loose feces was observed from POC-4(8319440) at 8 h timepoint"}, {"measurement": "Comment present", "setting": "Beagle dogs; dog, in vivo, 100 mg/kg", "value": "No"}, {"measurement": "Discoloration", "setting": "Beagle dogs; dog, in vivo, 100 mg/kg", "value": "No"}, {"measurement": "Dyspnea (labored breathing)", "setting": "Beagle dogs; dog, in vivo, 100 mg/kg", "value": "No"}, {"measurement": "Emesis observed, timepoint", "setting": "Beagle dogs; dog, in vivo, 100 mg/kg", "value": "c. “Loose feces” and “emesis” were observed from POA-4(8319440) at 4 h timepoint"}, {"measurement": "Feces with abnormal content", "setting": "Beagle dogs; dog, in vivo, 100 mg/kg", "value": "No"}, {"measurement": "Few feces", "setting": "Beagle dogs; dog, in vivo, 100 mg/kg", "value": "No"}, {"measurement": "Frothy", "setting": "Beagle dogs; dog, in vivo, 100 mg/kg", "value": "No"}, {"measurement": "Loose feces", "setting": "Beagle dogs; dog, in vivo, 100 mg/kg", "value": "Yes(f)"}, {"measurement": "Reduced food intake", "setting": "Beagle dogs; dog, in vivo, 100 mg/kg", "value": "No"}, {"measurement": "Soft Stool", "setting": "Beagle dogs; dog, in vivo, 100 mg/kg", "value": "No"}, {"measurement": "Soft stool observed, timepoint", "setting": "Beagle dogs; dog, in vivo, 100 mg/kg", "value": "f. Soft stool was observed from POA-3(8310744) and POA-4(8319440) at 24 h timepoint"}, {"measurement": "Some broken capsule found in the loose feces, timepoint", "setting": "Beagle dogs; dog, in vivo, 100 mg/kg", "value": "b. Some broken capsule was found in the loose feces at 30 min timepoint from POA-3"}, {"measurement": "Temperature Drop", "setting": "Beagle dogs; dog, in vivo, 100 mg/kg", "value": "No"}, {"measurement": "Temperature Rise", "setting": "Beagle dogs; dog, in vivo, 100 mg/kg", "value": "No"}, {"measurement": "Torpidity", "setting": "Beagle dogs; dog, in vivo, 100 mg/kg", "value": "No"}, {"measurement": "Tremor (slight)", "setting": "Beagle dogs; dog, in vivo, 100 mg/kg", "value": "No"}, {"measurement": "Uncoordinated movement", "setting": "Beagle dogs; dog, in vivo, 100 mg/kg", "value": "No"}, {"measurement": "Weight drop", "setting": "Beagle dogs; dog, in vivo, 100 mg/kg", "value": "No"}, {"measurement": "Comment present", "setting": "Beagle dogs; dog, in vivo, iv, 10 mg/kg", "value": "No"}, {"measurement": "Diarrhea", "setting": "Beagle dogs; dog, in vivo, iv, 10 mg/kg", "value": "No"}, {"measurement": "Discoloration", "setting": "Beagle dogs; dog, in vivo, iv, 10 mg/kg", "value": "No"}, {"measurement": "Dyspnea (labored breathing)", "setting": "Beagle dogs; dog, in vivo, iv, 10 mg/kg", "value": "No"}, {"measurement": "Feces with abnormal content", "setting": "Beagle dogs; dog, in vivo, iv, 10 mg/kg", "value": "No"}, {"measurement": "Few feces", "setting": "Beagle dogs; dog, in vivo, iv, 10 mg/kg", "value": "No"}, {"measurement": "Frothy", "setting": "Beagle dogs; dog, in vivo, iv, 10 mg/kg", "value": "No"}, {"measurement": "Loose feces", "setting": "Beagle dogs; dog, in vivo, iv, 10 mg/kg", "value": "No"}, {"measurement": "Reduced food intake", "setting": "Beagle dogs; dog, in vivo, iv, 10 mg/kg", "value": "No"}, {"measurement": "Soft Stool", "setting": "Beagle dogs; dog, in vivo, iv, 10 mg/kg", "value": "No"}, {"measurement": "Temperature Drop", "setting": "Beagle dogs; dog, in vivo, iv, 10 mg/kg", "value": "No"}, {"measurement": "Temperature Rise", "setting": "Beagle dogs; dog, in vivo, iv, 10 mg/kg", "value": "No"}, {"measurement": "Torpidity", "setting": "Beagle dogs; dog, in vivo, iv, 10 mg/kg", "value": "No"}, {"measurement": "Tremor (slight)", "setting": "Beagle dogs; dog, in vivo, iv, 10 mg/kg", "value": "No"}, {"measurement": "Uncoordinated movement", "setting": "Beagle dogs; dog, in vivo, iv, 10 mg/kg", "value": "No"}, {"measurement": "Weight drop", "setting": "Beagle dogs; dog, in vivo, iv, 10 mg/kg", "value": "No"}, {"measurement": "Adverse events reported, character", "setting": "human subjects [3]", "value": "primarily GI, low-grade, monitorable, manageable, and reversible"}, {"measurement": "Dose limiting toxicities", "setting": "human subjects [3]", "value": "no dose limiting toxicities"}, {"measurement": "Dose suggested as suitable for phase 2 studies", "setting": "human subjects [3]", "value": 800, "unit": "mg QD"}, {"measurement": "Gastrointestinal adverse events", "setting": "human subjects [3]", "value": "Low-grade gastrointestinal adverse events were prominent"}]}]}
